Assay results as given in patent publication US9150482B2 (Development Center for Biotechnology, priority 2012, dated 2015).
Where two headings read alike, the source gives them in different places. Marks after values point to notes of the source that are not given here.

How the values were obtained:
RINm5F cells = test: Insulin secretion tests in rat pancreatic beta cells RINm5F; format: cell-based; conditions: 2 hours, FIG. 4; for insulin secretion with exendin-4: 16 mM glucose, ELISA; for effect on insulin secretion in the absence of exendin-4: no exendin-4, 16 mM glucose
Protocol: Rat pancreatic beta cell line RINm5F was purchased from the Food Industry Research and Development Institute (Hsinchu, Taiwan), No. BCRC 60410; source: ATCC CRL-11 605. The cells are cultured in 10% FBS RPMI-1640 medium, in a constant temperature CO2 incubator, under 5% CO2, 37° C. and 95% humidity, for subsequent experiments.
To each 96-well plate, add the RINm5F cells (8×10^5 cells/well) and culture the cells for 2 days before the experiments. Before testing, remove the culture medium. To each well in the 96-well plates, add 100 ul of KRPH buffer (136 mM NaCl, 4.8 mM KCl, 1.2 mM CaCl2, 1.2 mM KH2PO4, 1.2 mM MgSO4, 5 mM NaHCO3, 10 mM HEPES), 2.8 mM D-glucose, 0.2% bovine serum albumin, pH 7.4, placed in a CO2 incubator at 37° C. for 30 minutes, to allow the pancreatic islet cells to acclimate to the medium change (from RPMI 1640 to KRPH buffer). Remove the 96-well plates from the incubator. […] Incubate the cells in KRPH buffer and glucose (KRPH +0.2% BSA, 16 mM glucose) containing culture medium for 2 hours to allow for insulin secretion by the islet beta cells under glucose stimulation. The supernatants from the incubation are collected and the concentrations of insulin released in the wells are assayed using ELISA. Various insulin ELISA kits are available from commercial sources, such as Calbiotech (Spring Valley, Calif.), Crystal Chem., Inc. (Downers Grove, Ill.), and Mercodia (Uppsala, Sweden).
Two days after inoculating RINm5F cells, about 8×10^5 cells/well in 96-well plates, add the active ingredients, compounds 1, 2, and 3, from wild ginger flower 95% ethanol extracts, to the cells. […] After 2 hours, the insulin contents in the supernatants are assessed using insulin ELISA kits.

GLP-1 receptor = target: T1, GLP-1 receptor (Homo sapiens, UniProt P43220); test: Receptor arrestin translocation assay (GLP-1 potentiator activity, U2OS cells transfected with GLP-1 receptor gene); format: cell-based
T1 construct: expressed in transfected cells; host or cells: U2OS (human bone osteosarcoma)
Protocol: For example, these cells may be plated as monolayer on a test plate (e.g., a 384-well plate). The cells, for example, may be plated at a density of 4000 cells per well. The test sample concentrations may be 0.2-0.000002 mg/ml. The test volumes may be 25 microliter, and the test time may be 1 hr.
GLP-1 receptors are G-protein coupled receptors with seven transmembrane domains. After activation by hormones or neural stimulants, many G-protein coupled cell surface receptors will internalize from the cell surface to the cytoplasm in endocytosis responses. […] This process may be used to assay the test samples. The extents of receptor endocytosis are closely related to the concentrations of the test samples—the higher the sample concentrations, the stronger the endocytosis responses. Because the densities of cell surface receptors are fixed, when the sample concentrations reach a high number, the extents of endocytosis responses would not increase with increasing sample concentrations, i.e., the response reaches saturation. Based on the concentrations and saturation measurements, one can determine the receptor binding affinities of the test samples.
After activation of G-protein coupled receptors, the receptors are typically desensitized or inactivated. Arrestin is involved in such desensitization or inactivation processes. That is, arrestin will be recruited to the GPCR to desensitize or inactivate the receptors. Therefore, monitoring the translocation of GFP-tagged arrestin from the cytosol to the activated GPCRs on the plasma membrane would allow one to measure the binding of test compounds to the receptor target. (Hudson et al., “High-content screening of know G protein-coupled receptors by arrestin translocation,” Methods Enzymol., 414: 63-78 (2006)).
Using this assay, the following test samples have been assessed: (a) compound 1 (MW 318), (b) compound 2 (MW 318), (c) compound 3 (MW 334), (d) compound 5 (MW 304), (e) compound 6 (MW 376). […] When the sample concentrations reach certain high concentrations, the extents of endocytosis responses will not further increase with increasing sample concentrations because the responses have reached saturation.
Based on the binding curves and saturation measurements as a function of test sample concentrations, the receptor affinities of the test samples can be determined.

normal mice = test: Intraperitoneal glucose tolerance test (IPGTT) in normal mice; format: in vivo, C57BL/6J mice; conditions: for hypoglycemic effects: oral, normal mice IPGTT; for Blood glucose concentration: mean±SEM
Protocol: In this example, in vivo IPGTT is used to validate the blood glucose lowering activity of compound 1 (purity 70%). Twenty-four (24) six weeks old C57BL/6J mice are fed normal diets in an environment of 12/12 light-dark cycles and a constant temperature controlled at 24±2° C. with an unlimited supply of water and food. The mice are divided into four groups of six each, including a control group and three compound 1 (purity 70%) groups. The three compound 1 groups are respectively given orally compound 1 at dosages of 40 mg/Kg, 60 mg/Kg, and 80 mg/Kg. Mice fasted overnight are allowed to eat for 1 hour. After feeding, wait for another hour before giving the test drugs. Thirty (30) minutes after drug administration, glucose at a dose of 1.5 g/kg body weigh is injected intraperitoneally. Blood glucose levels are measured before the glucose injection (0 minutes), as well as at 30, 60 and 90 minutes after the glucose injection, to observe the blood glucose level change curves.
As shown in FIG. 5 and summarized in the Table below, data are expressed as mean±standard error (SEM). P values are calculated using the t test in the Sigma statistical software, wherein p<0.05 is considered significant and marked as *; p<0.01 is considered highly significant and is marked as **; and p≦0.001 is considered extremely significant and marked as ***.

T1 sequence (P43220 24-463, species assumed): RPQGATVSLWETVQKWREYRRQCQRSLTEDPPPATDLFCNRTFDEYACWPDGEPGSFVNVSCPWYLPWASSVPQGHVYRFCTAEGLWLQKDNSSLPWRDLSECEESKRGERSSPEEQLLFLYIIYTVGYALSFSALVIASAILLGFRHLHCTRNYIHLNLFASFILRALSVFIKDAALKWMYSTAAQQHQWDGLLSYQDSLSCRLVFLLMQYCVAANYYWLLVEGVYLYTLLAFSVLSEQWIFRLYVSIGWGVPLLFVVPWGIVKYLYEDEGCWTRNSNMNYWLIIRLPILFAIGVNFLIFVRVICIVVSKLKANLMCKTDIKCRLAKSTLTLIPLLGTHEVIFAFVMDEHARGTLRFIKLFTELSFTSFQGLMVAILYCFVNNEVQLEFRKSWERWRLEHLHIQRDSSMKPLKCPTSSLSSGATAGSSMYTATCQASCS

C=C1CCC2C(C)(C)CCC[C@]2(C)C1C1C=C(C=O)CC(O)O1 (stereo partly drawn) [Compound 2, 11-hydroxy-8(17),12(E)-labdadien-15,16-dial 11,15-hemiacetal]
insulin secretion with exendin-4 (RINm5F cells; exendin-4 5 nM): stimulate more insulin secretions
effect on insulin secretion in the absence of exendin-4 (RINm5F cells): substantially abolished
EC50 (GLP-1 receptor; read-out: EC50 (converted)): 13.9 µM

CC1(C)CCC[C@]2(C)[C@H]3CC=C(C=O)C[C@@H](O)[C@]3(C=O)CC[C@@H]12 [Compound 1, Galanal B]
insulin secretion with exendin-4 (RINm5F cells; exendin-4 2 nM): stimulate more insulin secretions
effect on insulin secretion in the absence of exendin-4 (RINm5F cells): substantially abolished
hypoglycemic effects (normal mice; 40 mg/Kg group): 41%
Blood glucose concentration (normal mice; 40 mg/kg oral, compound 1 purity 70%, 0 minute (before glucose injection)): 120.5 ± 3.8 mg/dL
Blood glucose concentration (normal mice; 40 mg/kg oral, purity 70%, 30 minute after glucose 1.5 g/kg i.p.): 168.2 ± 3.0** mg/dl
Blood glucose concentration (normal mice; 40 mg/kg oral, purity 70%, 60 minute after glucose): 127.0 ± 4.4 mg/dL
Blood glucose concentration (normal mice; 40 mg/kg oral, purity 70%, 90 minute after glucose): 117.3 ± 3.4 mg/dL
hypoglycemic effects (normal mice; 60 mg/Kg group): 45%
Blood glucose concentration (normal mice; 60 mg/kg oral, purity 70%, 0 minute (before glucose injection)): 121.5 ± 3.7 mg/dL
Blood glucose concentration (normal mice; 60 mg/kg oral, purity 70%, 30 minute after glucose): 169.2 ± 3.6** mg/dl
Blood glucose concentration (normal mice; 60 mg/kg oral, purity 70%, 60 minute after glucose): 128.0 ± 4.0 mg/dL
Blood glucose concentration (normal mice; 60 mg/kg oral, purity 70%, 90 minute after glucose): 111.3 ± 2.9* mg/dl
hypoglycemic effects (normal mice; 80 mg/Kg group): 71%
Blood glucose concentration (normal mice; 80 mg/kg oral, purity 70%, 0 minute (before glucose injection)): 120.8 ± 3.7 mg/dL
Blood glucose concentration (normal mice; 80 mg/kg oral, purity 70%, 30 minute after glucose): 154.0 ± 2.5*** mg/dl
Blood glucose concentration (normal mice; 80 mg/kg oral, purity 70%, 60 minute after glucose): 120.3 ± 1.8** mg/dl
Blood glucose concentration (normal mice; 80 mg/kg oral, purity 70%, 90 minute after glucose): 106.7 mg/dL
EC50 (GLP-1 receptor; GLP-1 4-8 nM constant, U2OS cells expressing GLP-1R, FIG. 3): 6.603 µg/mL

C=C1CCC2C(C)(C)CCC[C@]2(C)[C@H]1C/C=C(/C=O)CC(OCC)OCC (stereo partly drawn) [Compound 6, (E)-15,15-diethoxylabda-8(17),12-dien-16-al]
EC50 (GLP-1 receptor; read-out: EC50 (converted)): 11.6 µM

C=C1CCC2C(C)(C)CCCC2(C)C1C1C=C(C=O)CC(O)OO1 (stereo not drawn) [Compound 3, Coronarin B]
insulin secretion with exendin-4 (RINm5F cells; exendin-4 5 nM): stimulate more insulin secretions
effect on insulin secretion in the absence of exendin-4 (RINm5F cells): substantially abolished
EC50 (GLP-1 receptor; read-out: EC50 (converted)): 0.196 µM
GLP-1 potentiator activity (in words) (GLP-1 receptor; summary of FIG. 3 results): most potent

C=C1CCC2C(C)(C)CCC[C@]2(C)[C@H]1C/C=C(/C=O)CCO (stereo partly drawn) [Compound 5, (E)-labda-8(17),12-diene-15-ol-16-al]
EC50 (GLP-1 receptor; read-out: EC50 (converted)): 8.14 µM
